Laboratory results from patent publication US11926613B2, “Kinase inhibitors for the treatment of central and peripheral nervous system disorders” (UNIVERSITY OF MIAMI, priority 2017, dated 2024).

What was measured:
[1] = test system: neurons from hippocampi of E18 rat embryos; experiment: Neurite growth length (% NTL) in cultured E18 rat hippocampal neurons, 9-point dose response, 48 hours; assay type: cell-based; settings: Rattus norvegicus, Neuron, 48 h; for activity at 0.078 µM: 78 nM; for activity at 0.156 µM: 156 nM; for activity at 0.312 µM: 312 nM; for activity at 0.625 µM: 625 nM
Summary of the method: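 % NTL comes from automated neurite tracing of βIII-tubulin-stained cells, with 200–300 or more neurons per condition. Compounds were given in a 9-point dilution series (20 μM to 0.078125 μM) for 48 h. Cells were trypsin-dissociated E18 rat hippocampal neurons plated at 1500/well on poly-D-lysine.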

Primary Neurons = experiment: HCS neurite outgrowth assay (High Content Screening with Primary Neurons); assay type: cell-based; settings: Primary neuron

| Compound | activity at 0.078 µM [1] [%] | activity at 0.156 µM [1] [%] | activity at 0.312 µM [1] [%] | activity at 0.625 µM [1] [%] | activity at 1.25 µM [1] [%] | activity at 2.5 µM [1] [%] | activity at 5 µM [1] [%] | activity at 10 µM [1] [%] | activity at 20 µM [1] [%] | EC50 (Primary Neurons) [µM] |
| --- | --- | --- | --- | --- | --- | --- | --- | --- | --- | --- |
| COc1ccc(O)c(C(=O)c2ccc(C(=O)N[C@@H]3CNC[C@H]3NC(=O)c3ccnc(N)n3)cc2)c1F [Example A36, 2-amino-N-[(3R,4R)-4-[4-(2-fluoro-6-hydroxy-3-methoxybenzoyl)benzamido]pyrrolidin-3-yl]pyrimidine-4-carboxamide] | 116 | 126 | 131 | 149 | 239 | 358 | 516 | 480 | 470 | 1.83 |
| COc1ccc(O)c(C(=O)c2ccc(C(=O)N[C@@H]3CNC[C@H]3NC(=O)c3ccc(O)cc3)cc2)c1F [Example A37, N-[(3R,4R)-4-[4-(2-fluoro-6-hydroxy-3-methoxybenzoyl)benzamido]pyrrolidin-3-yl]-4-hydroxybenzamide] | 100 | 109 | 113 | 107 | 113 | 124 | 132 | 155 | 212 | > 20 |
| COc1ccc(O)c(C(=O)c2ccc(C(=O)N[C@@H]3CNC[C@H]3NC(=O)c3cccnc3)cc2)c1F [Example A38, N-[(3R,4R)-4-[4-(2-fluoro-6-hydroxy-3-methoxybenzoyl)benzamido]pyrrolidin-3-yl]pyridine-3-carboxamide] | 108 | 102 | 103 | 96.6 | 100 | 100 | 106 | 100 | 87.7 | 3.15 |
| COc1ccc(O)c(C(=O)c2ccc(C(=O)N[C@@H]3CNC[C@H]3NC(=O)c3ccc(O)nc3)cc2)c1F [Example A39, N-[(3R,4R)-4-[4-(2-fluoro-6-hydroxy-3-methoxybenzoyl)benzamido]pyrrolidin-3-yl]-6-hydroxypyridine-3-carboxamide] | 96.3 | 93 | 85.5 | 80.5 | 83 | 87.3 | 98 | 98.9 | 101 | 3.76 |
| COc1ccc(O)c(C(=O)c2ccc(C(=O)N[C@@H]3CNC[C@H]3NC(=O)c3ccnc(O)c3)cc2)c1F [Example A40, N-[(3R,4R)-4-[4-(2-fluoro-6-hydroxy-3-methoxybenzoyl)benzamido]pyrrolidin-3-yl]-2-hydroxypyridine-4-carboxamide] | 86.3 | 91.2 | 86.2 | 86.2 | 94.1 | 108 | 101 | 106 | 121 | 9.62 |
| COc1ccc(O)c(C(=O)c2ccc(C(=O)N[C@@H]3CNC[C@H]3NC(=O)c3ccncn3)cc2)c1F [Example A41, N-[(3R,4R)-4-[4-(2-fluoro-6-hydroxy-3-methoxybenzoyl)benzamido]pyrrolidin-3-yl]pyrimidine-4-carboxamide] | 91.3 | 88.5 | 86.2 | 87 | 95.9 | 102 | 124 | 152 | 190 | 11 |
| COc1ccc(O)c(C(=O)c2ccc(C(=O)N[C@@H]3CNC[C@H]3NC(=O)c3ccc4[nH]ncc4c3)cc2)c1F [Example A42, N-[(3R,4R)-4-[4-(2-fluoro-6-hydroxy-3-methoxybenzoyl)benzamido]pyrrolidin-3-yl]-1H-indazole-5-carboxamide] | 115 | 110 | 126 | 118 | 169 | 255 | 403 | 431 | 369 | 2.45 |
| COc1ccc(O)c(C(=O)c2ccc(C(=O)N[C@@H]3CNC[C@H]3NC(=O)c3cn[nH]c3)cc2)c1F [Example A43, N-[(3R,4R)-4-[4-(2-fluoro-6-hydroxy-3-methoxybenzoyl)benzamido]pyrrolidin-3-yl]-1H-pyrazole-4-carboxamide] | 118 | 118 | 115 | 114 | 124 | 136 | 144 | 155 | 173 | 3.11 |
| COc1ccc(O)c(C(O)c2ccc(C(=O)N[C@@H]3CNC[C@H]3NC(=O)c3ccnc(N)n3)cc2)c1F (stereo partly drawn) [Example A44, 2-amino-N-[(3R,4R)-4-{4-[(2-fluoro-6-hydroxy-3-methoxyphenyl)(hydroxy)methyl]benzamido}pyrrolidin-3-yl]pyrimidine-4-carboxamide] | 94 | 87.1 | 78.8 | 76.4 | 99.4 | 96.2 | 104 | 103 | 105 | 2.05 |
| COc1ccc(O)c(Cc2ccc(C(=O)N[C@@H]3CNC[C@H]3NC(=O)c3ccnc(N)n3)cc2)c1F [Example A45, 2-amino-N-[(3R,4R)-4-{4-[(2-fluoro-6-hydroxy-3-methoxyphenyl)methyl]benzamido}pyrrolidin-3-yl]pyrimidine-4-carboxamide] | 96.5 | 90.2 | 83.7 | 87 | 84.8 | 93.3 | 89.1 | 97.2 | 111 | > 20 |
| COc1ccc(O)c(C(=O)c2ccc(C(=O)N[C@@H]3CNC[C@H]3NC(=O)Cc3cccnc3)cc2)c1F [Example A46, 4-(2-fluoro-6-hydroxy-3-methoxybenzoyl)-N-[(3R,4R)-4-[2-(pyridin-3-yl)acetamido]pyrrolidin-3-yl]benzamide] | 95.6 | 95 | 90.8 | 77.5 | 93.1 | 86.8 | 88.1 | 100 | 90.2 | 1.65 |
| COc1ccc(O)c(C(=O)c2ccc(C(=O)N[C@@H]3CNC[C@H]3NC(=O)Cc3cn[nH]c3)cc2)c1F [Example A47, 4-(2-fluoro-6-hydroxy-3-methoxybenzoyl)-N-[(3R,4R)-4-[2-(1H-pyrazol-4-yl)acetamido]pyrrolidin-3-yl]benzamide] | 100 | 99.3 | 99.7 | 96.8 | 104 | 112 | 122 | 128 | 162 | 7.43 |
| COc1ccc(O)c(C(=O)c2ccc(C(=O)N[C@@H]3CNC[C@H]3NC(=O)c3ccnc4[nH]cnc34)cc2)c1F [Example A48, N-[(3R,4R)-4-[4-(2-fluoro-6-hydroxy-3-methoxybenzoyl)benzamido]pyrrolidin-3-yl]-3H-imidazo[4,5-b]pyridine-7-carboxamide] | 109 | 117 | 116 | 120 | 144 | 219 | 332 | 461 | 421 | 6.08 |
| O=C(N[C@@H]1CNC[C@H]1NC(=O)c1ccc2[nH]ncc2c1)c1ccc(C(=O)c2c(O)cccc2F)cc1 [Example A49, N-[(3R,4R)-4-[4-(2-fluoro-6-hydroxybenzoyl)benzamido]pyrrolidin-3-yl]-1H-indazole-5-carboxamide] | 107 | 99.5 | 101 | 112 | 139 | 200 | 298 | 322 | 207 | 2.46 |
| Nc1nccc(C(=O)N[C@@H]2CNC[C@H]2NC(=O)c2ccc(C(=O)c3c(O)cccc3F)cc2)n1 [Example A50, 2-amino-N-[(3R,4R)-4-[4-(2-fluoro-6-hydroxybenzoyl)benzamido]pyrrolidin-3-yl]pyrimidine-4-carboxamide] | 113 | 113 | 118 | 136 | 194 | 285 | 431 | 561 | 457 | 3.6 |
| O=C(N[C@@H]1CNC[C@H]1NC(=O)c1ccc(C(=O)c2c(O)cccc2F)cc1)c1ccncc1 [Example A51, N-[(3R,4R)-4-[4-(2-fluoro-6-hydroxybenzoyl)benzamido]pyrrolidin-3-yl]pyridine-4-carboxamide] | 129 | 129 | 135 | 158 | 191 | 260 | 362 | 506 | 421 | 4.9 |
